The values that follow are results of earlier work, collected in patent US6669955B2, “Combination dosage form containing individual dosage units of a cholesterol-lowering agent, an inhibitor of the renin-angiotensin system, and aspirin” (Longwood Pharmaceutical Research, Inc., priority 2001, dated 2003).

The test system of data set [1] is patients at risk for cardiovascular events. To be noted: daily administration of low doses (approximately 80 mg); cited from earlier work.
A further data set has as its system blood pressure. To be noted: relative to angiotensin II; cited from earlier work.

As to `CC(=O)Oc1ccccc1C(=O)O` [aspirin, acetylsalicylic acid], in data set [1], the “reduction of second heart attacks, strokes, and cardiovascular deaths” value is “at least 25%”.
Regarding “angiotensin I (DRVYIHPFHL; Angiotensin-1; UniProt P01019 25-34, looked up) [decapeptide formed by renin acting on angiotensinogen]”, the “hypertensive activity, as share of that of angiotensin II” value in the data set with blood pressure was “about 1%”.
